Assay results as given in ChEMBL document CHEMBL3885881, “DrugMatrix”.

Organism: Rattus norvegicus
Experiment: DrugMatrix - Regimen: Daily Repeat
Type: toxicity, organism-based, Sprague-Dawley
Set-up: regimen Daily Repeat, gender Male, age 6-8 weeks
Conditions: in vivo, po, 10 mg/kg, route oral GAVAGE, dose level Low, […]; for ABSOLUTE BASOPHIL / ABSOLUTE EOSINOPHIL / ABSOLUTE LYMPHOCYTE / ABSOLUTE MONOCYTE / ABSOLUTE SEGMENTED NEUTROPHIL / BASOPHIL / EOSINOPHIL / HEMATOCRIT / HEMOGLOBIN / LEUKOCYTE COUNT / LYMPHOCYTE / MEAN CORPUSCULAR HEMOGLOBIN / MEAN CORPUSCULAR HEMOGLOBIN CONCENTRATION / MEAN CORPUSCULAR VOLUME / MONOCYTE / NEUTROPHIL / NUCLEATED RED BLOOD CELLS / PLATELET COUNT: tissue Blood; for ALANINE AMINOTRANSFERASE / ALBUMIN / ALKALINE PHOSPHATASE / ASPARTATE AMINOTRANSFERASE / BLOOD UREA NITROGEN / CARBON DIOXIDE / CHLORIDE / CHOLESTEROL / CREATINE PHOSPHOKINASE / CREATININE / GLUCOSE / LIPASE / PHOSPHORUS / POTASSIUM / SODIUM / TOTAL BILIRUBIN / TOTAL PROTEIN / URIC ACID: tissue Plasma

CN1CCN2c3ccccc3Cc3ccccc3C2C1 (configuration not stated) [MIANSERIN]
ABSOLUTE BASOPHIL (72 h, time 3 day): 0 CELLS/uL | ABSOLUTE EOSINOPHIL (72 h, time 3 day): 54.33 CELLS/uL | ABSOLUTE LYMPHOCYTE (72 h, time 3 day): 11772.33 CELLS/uL | ABSOLUTE MONOCYTE (72 h, time 3 day): 287.33 CELLS/uL | ABSOLUTE SEGMENTED NEUTROPHIL (72 h, time 3 day): 1319.33 CELLS/uL | BASOPHIL (72 h, time 3 day): 0% | EOSINOPHIL (72 h, time 3 day): 0.33% | HEMATOCRIT (72 h, time 3 day): 34.47% | HEMOGLOBIN (72 h, time 3 day): 13.1 G/DL | LEUKOCYTE COUNT (72 h, time 3 day): 13.43 x10E3/uL | LYMPHOCYTE (72 h, time 3 day): 88.33% | MEAN CORPUSCULAR HEMOGLOBIN (72 h, time 3 day): 23.57 pg | MEAN CORPUSCULAR HEMOGLOBIN CONCENTRATION (72 h, time 3 day): 38 G/DL | MEAN CORPUSCULAR VOLUME (72 h, time 3 day): 61.97 fL | MONOCYTE (72 h, time 3 day): 2% | NEUTROPHIL (72 h, time 3 day): 9.33% | NUCLEATED RED BLOOD CELLS (72 h, time 3 day): 0 /100WBC | PLATELET COUNT (72 h, time 3 day): 1172 x10E3/uL | ALANINE AMINOTRANSFERASE (72 h, time 3 day): 74.67 u/L | ALBUMIN (72 h, time 3 day): 4.4 G/DL | ALKALINE PHOSPHATASE (72 h, time 3 day): 433.33 u/L | ASPARTATE AMINOTRANSFERASE (72 h, time 3 day): 111 u/L | BLOOD UREA NITROGEN (72 h, time 3 day): 16.33 mg/dL | CARBON DIOXIDE (72 h, time 3 day): 20.67 mmol/L | CHLORIDE (72 h, time 3 day): 107 MEQ/L | CHOLESTEROL (72 h, time 3 day): 81 mg/dL | CREATINE PHOSPHOKINASE (72 h, time 3 day): 603 u/L | CREATININE (72 h, time 3 day): 0.28 mg/dL | GLUCOSE (72 h, time 3 day): 162.67 mg/dL | LIPASE (72 h, time 3 day): 12 u/L | PHOSPHORUS (72 h, time 3 day): 12.3 mg/dL | POTASSIUM (72 h, time 3 day): 6.52 MEQ/L | SODIUM (72 h, time 3 day): 150.33 MEQ/L | TOTAL BILIRUBIN (72 h, time 3 day): 0.27 mg/dL | TOTAL PROTEIN (72 h, time 3 day): 6.23 G/DL | URIC ACID (72 h, time 3 day): 1.93 mg/dL | ABSOLUTE BASOPHIL (120 h, time 5 day): 0 CELLS/uL | ABSOLUTE EOSINOPHIL (120 h, time 5 day): 0 CELLS/uL | ABSOLUTE LYMPHOCYTE (120 h, time 5 day): 13210.67 CELLS/uL | ABSOLUTE MONOCYTE (120 h, time 5 day): 71.33 CELLS/uL | ABSOLUTE SEGMENTED NEUTROPHIL (120 h, time 5 day): 1118 CELLS/uL | BASOPHIL (120 h, time 5 day): 0% | EOSINOPHIL (120 h, time 5 day): 0% | HEMATOCRIT (120 h, time 5 day): 37.27% | HEMOGLOBIN (120 h, time 5 day): 13.67 G/DL | LEUKOCYTE COUNT (120 h, time 5 day): 14.4 x10E3/uL | LYMPHOCYTE (120 h, time 5 day): 92% | MEAN CORPUSCULAR HEMOGLOBIN (120 h, time 5 day): 23.9 pg | MEAN CORPUSCULAR HEMOGLOBIN CONCENTRATION (120 h, time 5 day): 36.73 G/DL | MEAN CORPUSCULAR VOLUME (120 h, time 5 day): 65.03 fL | MONOCYTE (120 h, time 5 day): 0.33% | NEUTROPHIL (120 h, time 5 day): 7.67% | NUCLEATED RED BLOOD CELLS (120 h, time 5 day): 0 /100WBC | PLATELET COUNT (120 h, time 5 day): 1241.33 x10E3/uL | ALANINE AMINOTRANSFERASE (120 h, time 5 day): 77.67 u/L | ALBUMIN (120 h, time 5 day): 4.3 G/DL | ALKALINE PHOSPHATASE (120 h, time 5 day): 439.33 u/L | ASPARTATE AMINOTRANSFERASE (120 h, time 5 day): 87.33 u/L | BLOOD UREA NITROGEN (120 h, time 5 day): 16.67 mg/dL | CARBON DIOXIDE (120 h, time 5 day): 24.67 mmol/L | CHLORIDE (120 h, time 5 day): 105.33 MEQ/L | CHOLESTEROL (120 h, time 5 day): 62 mg/dL | CREATINE PHOSPHOKINASE (120 h, time 5 day): 238.33 u/L | CREATININE (120 h, time 5 day): 0.16 mg/dL | GLUCOSE (120 h, time 5 day): 176.33 mg/dL | LIPASE (120 h, time 5 day): 11 u/L | PHOSPHORUS (120 h, time 5 day): 13.77 mg/dL | POTASSIUM (120 h, time 5 day): 7.05 MEQ/L | SODIUM (120 h, time 5 day): 148.43 MEQ/L | TOTAL BILIRUBIN (120 h, time 5 day): 0.23 mg/dL | TOTAL PROTEIN (120 h, time 5 day): 6.13 G/DL | URIC ACID (120 h, time 5 day): 2.37 mg/dL
